The data set is described as follows: Solubility in aqueous solution. The format is physicochemical. From the text:
In some cases, the DHEAS will associate with or form a complex with the divalent cation which is less soluble than the DHEAS sodium salt.

Turning to “Dehydroepiandrosterone sulfate [DHEAS-Na]”, the solubility entry is “about 17 mg/ml”.

(Values after US20090118249A1, “DHEAS INHALATION COMPOSITIONS” (priority 2007, published 2009).)
